Drawing on ChEMBL document CHEMBL1142232, “Inhibition of spinal microglial cathepsin S for the reversal of neuropathic pain” (Proc Natl Acad Sci U S A, 2007), this text covers Activity for three compounds.

The test system of series [1] is Rattus norvegicus. In words: Inhibition of rat recombinant cathepsin S-induced hyperalgesia in naive Wistar rat at 50 nmol administered 30 mins before cathepsin S challenge. It counts as functional, organism-based.
The species named for series [2] is Rattus norvegicus. In words: Inhibition of rat recombinant cathepsin S-induced hyperalgesia in Wistar rat at 50 ug. It counts as functional, organism-based.
In series [3] the test system is Rattus norvegicus. In words: Antinociceptive activity in intrathecally dosed Wistar rat partial ligation of sciatic nerve 3-day neuropathic pain model assessed as alteration of mechanical allodynia at 50 nmol. It counts as functional, organism-based.
For series [4], the system named is Rattus norvegicus. In words: Analgesic activity in intrathecally dosed Wistar rat partial ligation of sciatic nerve neuropathic pain model assessed as reduction of mechanical hyperalgesia at 50 nmol after 14 days. It counts as functional, organism-based.
Series [5] relates to Rattus norvegicus. In words: Analgesic activity in intrathecally dosed Wistar rat partial ligation of sciatic nerve neuropathic pain model assessed as attenuation of allodynia at 50 nmol after 7 days. It counts as functional, organism-based.
Series [6] concerns Rattus norvegicus. In words: Analgesic activity in intrathecally dosed Wistar rat partial ligation of sciatic nerve neuropathic pain model assessed as attenuation of allodynia at 50 nmol after 14 days. It counts as functional, organism-based.
Series [7] concerns Rattus norvegicus. In words: Analgesic activity in intrathecally dosed Wistar rat partial ligation of sciatic nerve neuropathic pain model assessed as reduction of mechanical hyperalgesia at 10 nmol after 14 days. In kind it is functional, organism-based.
Series [8] relates to Rattus norvegicus. In words: Effect on contralateral mechanical thresholds in intrathecally dosed Wistar rat partial ligation of sciatic nerve neuropathic pain model. It counts as functional, organism-based.
The species entered for series [9] is Rattus norvegicus. The series is described as follows: Toxicity in Wistar rat assessed as effect on motor behavior by rotarod test. It counts as organism-based. As to conditions: in vivo. Background: Falling from the rotarod earlier than controls is read as motor impairment.
For series [10], the species on record is Rattus norvegicus. In words: Reduction of microglial activation in Wistar rat partial ligation of sciatic nerve neuropathic pain model at 30 nmol. It counts as functional, organism-based.
Series [11] is filed under the species Rattus norvegicus. The series is described as follows: Analgesic activity in Wistar rat partial ligation of sciatic nerve model of neuropathic pain assessed as reversal of allodynia at 30 nmol after 3 to 5 days. It counts as functional, organism-based.
Series [12] is filed under the species Rattus norvegicus. In words: Analgesic activity in Wistar rat partial ligation of sciatic nerve model of neuropathic pain assessed as reversal of allodynia at 30 nmol after 7 days. It counts as functional, organism-based.
The species entered for series [13] is Rattus norvegicus. The series is described as follows: Effect on sarcosine-induced hyperalgesia in Wistar rat. In kind it is functional, organism-based.
The species entered for series [14] is Rattus norvegicus. In words: Effect on NMDA-induced hyperalgesia in Wistar rat. It counts as functional, organism-based.

The source made the active and inactive calls. Where a SMILES comes first, the peptide text is derived from it. [ ]: non-standard residue; d: D form. Oic = O=C(O)[C@@H]1C[C@@H]2CCCC[C@@H]2N1; Hyp = O=C(O)[C@@H]1C[C@@H](O)CN1; dTic = O=C(O)[C@H]1Cc2ccccc2CN1; 2Thi = N[C@@H](Cc1cccs1)C(=O)O

On to `N=C(N)NCCC[C@@H](N)C(=O)N[C@@H](CCCNC(=N)N)C(=O)N1CCC[C@H]1C(=O)N1C[C@H](O)C[C@H]1C(=O)NCC(=O)N[C@@H](Cc1cccs1)C(=O)N[C@@H](CO)C(=O)N1Cc2ccccc2C[C@@H]1C(=O)N1[C@H](C(=O)O)C[C@@H]2CCCC[C@@H]21` (H-[dR]RP[Hyp]G[2Thi]S[dTic][Oic]-OH), for which the result in the series with Rattus norvegicus [1] and in the series filed under Rattus norvegicus [2] was inactive.

Regarding `N=C(N)NCCC[C@@H](N)C(=O)N[C@@H](CCCNC(=N)N)C(=O)N1CCC[C@H]1C(=O)N1C[C@H](O)C[C@H]1C(=O)NCC(=O)N[C@@H](Cc1cccs1)C(=O)N[C@@H](CO)C(=O)N1Cc2ccccc2C[C@@H]1C(=O)N1[C@H](C(=O)N[C@@H](CCCNC(=N)N)C(=O)O)C[C@@H]2CCCC[C@@H]21`, the result in the series with Rattus norvegicus [1] and in the series filed under Rattus norvegicus [2] was inactive.

As to `CC(C)C[C@@H](NC(=O)N1CCOCC1)C(=O)N[C@@H](/C=C/S(=O)(=O)c1ccccc1)CCc1ccccc1`, the outcome in the series on Rattus norvegicus [3], with Rattus norvegicus [8], in the series listed under Rattus norvegicus [11], in the series listed under Rattus norvegicus [13], in the series with Rattus norvegicus [1] and in the series filed under Rattus norvegicus [14] was inactive. Further, the outcome with Rattus norvegicus [4], in the series on Rattus norvegicus [5], with Rattus norvegicus [6], with Rattus norvegicus [7], in the series listed under Rattus norvegicus [10] and in the series filed under Rattus norvegicus [12] was Active. The Activity entry in the series filed under Rattus norvegicus [9] is “Non-toxic”.
